In paper PMC6362252, “A cell-free platform for the prenylation of natural products and application to cannabinoid production” (Nature Communications, 2019):

How the values were obtained:
NphB = NphB (Streptomyces sp. CL190, UniProt Q4R2T2, A232S/Y288A); conditions: M30; otherwise same
[1] = target: T1, cannabidiolic acid synthase (CBDAS); CBDA synthase (Cannabis sativa, UniProt A6P6V9); assay: HPLC of product CBDA; type: biochemical; conditions: concentrated expression medium, 25 µM FAD, 5 mM MgCl2, 5 mM KCl, 50 mM Hepes pH 7.0, 30 °C, nonane overlay
T1 construct: native signal peptide removed, starts at residue 28 (NPREN...), pPICZalpha, secreted by Pichia pastoris X33, concentrated culture medium (not purified)

Row | Compound | Km (NphB) [µM] | HPLC of product CBDA [1]
1 | CCCCCc1cc(O)cc(O)c1C(=O)O [olivetolic acid] | 200 ± 40 | 
2 | CCCCCc1cc(O)c(C/C=C(\C)CCC=C(C)C)c(O)c1C(=O)O [cannabigerolic acid] |  | we employed CBDA synthase to convert CBGA into CBDA and CBGVA into CBDVA
